Laboratory results as given in US8273890B2 (4SC AG, priority 2007, dated 2012).
pIC50: −log10 of the molar value.

Molecular target: T1, recombinant Plk1 protein (Homo sapiens, UniProt P53350)
T1 construct: histidine tag (N); made in house; host or cells: SF9 insect cells
Experiment: Plk1 kinase activity inhibition assay (33P-ATP, alpha casein substrate, flash plates)
Type: biochemical
Conditions: enzymatic assay, 100 nM Li-ATP, 80 minutes at 30° C.
Protocol: The inhibition of Plk1 kinase activity can be measured using recombinant Plk1 protein expressed as an N-terminally histidine-tagged protein in SF9 insect cells and alpha casein as substrate. The Plk1 assay is run in 96 well plates by incubating 50 to 100 ng per well recombinant Plk1, 500 ng per well alpha casein (Sigma, # C-6780) as substrate, 10 μl of compound of invention (test compounds were dissolved as 20 mM solutions in dimethylsulfoxide (DMSO) and subsequently diluted), and 100 nM Li-ATP (including ^33P-ATP) in 100 μl of reaction buffer ([…] HEPES, pH 7.5; 3 mM MgCl2; 3 mM MnCl2; 3 μM Na-Orthovanadat; 1 mM DTT; 1 μg/ml PEG 8000) for 80 minutes at 30° C. The reactions are terminated by adding 100 μl stopping buffer (2% H3PO4 for 5 minutes) and are washed 3 times with washing solution (0.9% NaCl). Determining ^33P incorporated into the protein substrate alpha casein, the detection is based on the adhesion of the phosphorylated protein to the surface of scintillator-coated flash plates (Perkin Elmer, USA; #SMP-200). Phosphorylation of alpha casein is measured by counting the radioactivity bound to the plate for 60 sec. using a plate reader (Perkin Elmer, USA; Wallac Microbeta). By this method, the IC50 value of the Plk1 inhibition is determined as described above.

T1 sequence (P53350 whole entry): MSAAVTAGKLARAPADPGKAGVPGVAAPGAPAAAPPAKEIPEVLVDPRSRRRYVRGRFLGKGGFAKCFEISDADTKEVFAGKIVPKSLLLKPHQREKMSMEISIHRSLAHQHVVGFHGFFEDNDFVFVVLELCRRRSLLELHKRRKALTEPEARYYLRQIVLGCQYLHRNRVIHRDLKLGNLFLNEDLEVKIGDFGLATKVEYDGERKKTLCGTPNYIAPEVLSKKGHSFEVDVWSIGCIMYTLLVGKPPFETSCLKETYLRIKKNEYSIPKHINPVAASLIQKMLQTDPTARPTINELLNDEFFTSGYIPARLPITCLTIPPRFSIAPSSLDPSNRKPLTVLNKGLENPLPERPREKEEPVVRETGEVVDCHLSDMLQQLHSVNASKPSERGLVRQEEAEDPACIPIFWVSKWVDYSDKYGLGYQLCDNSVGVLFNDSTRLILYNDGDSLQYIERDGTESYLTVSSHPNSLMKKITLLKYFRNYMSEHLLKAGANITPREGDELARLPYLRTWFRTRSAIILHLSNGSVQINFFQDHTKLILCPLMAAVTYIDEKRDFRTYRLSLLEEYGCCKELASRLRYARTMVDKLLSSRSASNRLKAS

Question: `CC(Oc1cc(-n2cnc3cnc(CN4CCN(C(=O)N(C)C)CC4)cc32)sc1C(N)=O)c1ccccc1OC(F)F` (stereo not shown) [Example 134, 4-{[1-(5-carbamoyl-4-{1-[2-(difluoromethoxy)phenyl]ethoxy}-2-thienyl)-1H-imidazo[4,5-c]pyridin-6-yl]methyl}-N,N-dimethylpiperazine-1-carboxamide] was tested. Which pIC50 did it give?
Answer: > 8.00

Question: `COc1ccc2ncn(-c3cc(OCc4ccccc4C(F)(F)F)c(C(N)=O)s3)c2n1` [Example 22, 5-(5-methoxy-3H-imidazo[4,5-b]pyridin-3-yl)-3-{[2-(trifluoromethyl)benzyl]oxy}thiophene-2-carboxamide] was tested. Which pIC50 did it give?
Answer: > 8.00

Question: With `C[C@@H](Oc1cc(-n2cnc3cnc(CN4CCS(=O)(=O)CC4)cc32)sc1C(N)=O)c1ccccc1C(F)(F)F` [Example 63, 5-{6-[(1,1-dioxidothiomorpholin-4-yl)methyl]-1H-imidazo[4,5-c]pyridin-1-yl}-3-{(1R)-1-[2-(trifluoromethyl)phenyl]ethoxy}thiophene-2-carboxamide] as the compound, how does the pIC50 read?
Answer: 7.00 to 8.00

Question: `NC(=O)c1sc(-n2cnc3ccncc32)cc1OCc1ccc(F)cc1C(F)(F)F` [Example 41, 3-{[4-fluoro-2-(trifluoromethyl)benzyl]oxy}-5-(3H-imidazo[4,5-c]pyridin-3-yl)thiophene-2-carboxamide] was tested. Which pIC50 did it give?
Answer: 7.00 to 8.00

Question: With `C[C@@H](Oc1cc(-n2cnc3cnc(CNC(C)(C)C)cc32)sc1C(N)=O)c1ccccc1C(F)(F)F` [Example 114, 5-{6-[(tert-butylamino)methyl]-1H-imidazo[4,5-c]pyridin-1-yl}-3-{(1R)-1-[2-(trifluoromethyl)phenyl]ethoxy}thiophene-2-carboxamide] as the compound, how does the pIC50 read?
Answer: 7.00 to 8.00

Question: With `C[C@@H](Oc1cc(-n2cnc3cc(CN4CCN(C)CC4)ncc32)sc1C(N)=O)c1ccccc1C(F)(F)F` [Example 49, 5-{6-[(4-methylpiperazin-1-yl)methyl]-3H-imidazo[4,5-c]pyridin-3-yl}-3-{(1R)-1-[2-(trifluoromethyl)phenyl]ethoxy}thiophene-2-carboxamide] as the compound, how does the pIC50 read?
Answer: 5.00 to 6.00

Question: How did the pIC50 turn out when `C[C@@H](Oc1cc(-n2cnc3cnc(CN4CCN(C(=O)c5ccccc5)CC4)cc32)sc1C(N)=O)c1ccccc1C(F)(F)F` [Example 78, 5-{6-[(4-benzoylpiperazin-1-yl)methyl]-1H-imidazo[4,5-c]pyridin-1-yl}-3-{(1R)-1-[2-(trifluoromethyl)phenyl]ethoxy}thiophene-2-carboxamide] was run?
Answer: 7.00 to 8.00

Question: With `C[C@@H](Oc1cc(-n2cnc3cnc(CN4CCN(C(=O)N(C)C)CC4)cc32)sc1C(N)=O)c1ccccc1Cl` [Example 128, 4-[(1-{5-carbamoyl-4-[(1R)-1-(2-chlorophenyl)ethoxy]-2-thienyl}-1H-imidazo[4,5-c]pyridin-6-yl)methyl]-N,N-dimethylpiperazine-1-carboxamide] as the compound, how does the pIC50 read?
Answer: > 8.00

Question: How did the pIC50 turn out when `CCNCc1cc2c(cn1)ncn2-c1cc(O[C@H](C)c2ccccc2C(F)(F)F)c(C(N)=O)s1` [Example 112, 5-{6-[(ethylamino)methyl]-1H-imidazo[4,5-c]pyridin-1-yl}-3-{(1R)-1-[2-(trifluoromethyl)phenyl]ethoxy}thiophene-2-carboxamide] was run?
Answer: 7.00 to 8.00

Question: With `CC(Oc1cc(-n2cnc3cnccc32)sc1C(N)=O)c1ccccc1C(F)(F)F` (stereo not shown) [Example 14, 5-(1H-Imidazo[4,5-c]pyridin-1-yl)-3-{1-[2-(trifluoromethyl)phenyl]ethoxy}thiophene-2-carboxamide] as the compound, how does the pIC50 read?
Answer: 7.00 to 8.00

Question: How did the pIC50 turn out when `C[C@@H](Oc1cc(-n2cnc3cnc(CN4CCC(N(C)C)C4)cc32)sc1C(N)=O)c1ccccc1C(F)(F)F` (stereo partly drawn) [Example 144, 5-(6-{[3-(dimethylamino)pyrrolidin-1-yl]methyl}-1H-imidazo[4,5-c]pyridin-1-yl)-3-{(1R)-1-[2-(trifluoromethyl)phenyl]ethoxy}thiophene-2-carboxamide] was run?
Answer: > 8.00

Question: How did the pIC50 turn out when `C[C@@H](Oc1cc(-n2cnc3cnc(CN4CCN(C)CC4)cc32)sc1C(N)=O)c1ccccc1Cl` [Example 100, 3-[(1R)-1-(2-chlorophenyl)ethoxy]-5-{6-[(4-methylpiperazin-1-yl)methyl]-1H-imidazo[4,5-c]pyridin-1-yl}thiophene-2-carboxamide] was run?
Answer: > 8.00

Question: How did the pIC50 turn out when `C[C@@H](Oc1cc(-n2cnc3cnc(CN4CCC(O)C4)cc32)sc1C(N)=O)c1ccccc1C(F)(F)F` (stereo partly drawn) [Example 94, 5-{6-[(3-hydroxypyrrolidin-1-yl)methyl]-1H-imidazo[4,5-c]pyridin-1-yl}-3-{(1R)-1-[2-(trifluoromethyl)phenyl]ethoxy}thiophene-2-carboxamide] was run?
Answer: > 8.00

Question: With `C[C@@H](Oc1cc(-n2cnc3cnc(CO)cc32)sc1C(N)=O)c1ccccc1F` [Example 55, 3-[(1R)-1-(2-fluorophenyl)ethoxy]-5-[6-(hydroxymethyl)-1H-imidazo[4,5-c]pyridin-1-yl]thiophene-2-carboxamide] as the compound, how does the pIC50 read?
Answer: > 8.00

Question: With `CCC(Oc1cc(-n2cnc3cnc(CN4CCN(C)CC4)cc32)sc1C(N)=O)c1ccccc1Cl` (stereo not shown) [Example 102, 3-{[1-(2-chlorophenyl)propyl]oxy}-5-{6-[(4-methylpiperazin-1-yl)methyl]-1H-imidazo[4,5-c]pyridin-1-yl}thiophene-2-carboxamide] as the compound, how does the pIC50 read?
Answer: 7.00 to 8.00

Question: `CC(Oc1cc(-n2cnc3cnc(CO)cc32)sc1C(N)=O)c1ccccc1F` (stereo not shown) [Example 57] was tested. Which pIC50 did it give?
Answer: > 8.00

Question: `C[C@@H](Oc1cc(-n2cnc3cnc(CN4CCN(CCCO)CC4)cc32)sc1C(N)=O)c1ccccc1C(F)(F)F` [Example 108, 5-(6-{[4-(3-hydroxypropyl)piperazin-1-yl]methyl}-1H-imidazo[4,5-c]pyridin-1-yl)-3-{(1R)-1-[2-(trifluoromethyl)phenyl]ethoxy}thiophene-2-carboxamide] was tested. Which pIC50 did it give?
Answer: > 8.00

Question: `C[C@@H](Oc1cc(-n2cnc3cnc(CN4CCN(C5CCCCC5)CC4)cc32)sc1C(N)=O)c1ccccc1C(F)(F)F` [Example 106, 5-{6-[(4-cyclohexylpiperazin-1-yl)methyl]-1H-imidazo[4,5-c]pyridin-1-yl}-3-{(1R)-1-[2-(trifluoromethyl)phenyl]ethoxy}thiophene-2-carboxamide] was tested. Which pIC50 did it give?
Answer: 7.00 to 8.00

Question: With `C[C@@H](Oc1cc(-n2cnc3cnc(CN4CCNCC4)cc32)sc1C(N)=O)c1ccccc1C(F)(F)F` [Example 92] as the compound, how does the pIC50 read?
Answer: > 8.00

Question: With `C[C@@H](Oc1cc(-n2cnc3cc(CNC4CC4)ncc32)sc1C(N)=O)c1ccccc1C(F)(F)F` [Example 115, 5-{6-[(cyclopropylamino)methyl]-3H-imidazo[4,5-c]pyridin-3-yl}-3-{(1R)-1-[2-(trifluoromethyl)phenyl]ethoxy}thiophene-2-carboxamide] as the compound, how does the pIC50 read?
Answer: 7.00 to 8.00

Question: How did the pIC50 turn out when `CCN1CCN(Cc2cc3c(cn2)ncn3-c2cc(OC(C)c3ccccc3OC(F)F)c(C(N)=O)s2)CC1` (stereo not shown) [Example 135, 3-{1-[2-(difluoromethoxy)phenyl]ethoxy}-5-{6-[(4-ethylpiperazin-1-yl)methyl]-1H-imidazo[4,5-c]pyridin-1-yl}thiophene-2-carboxamide] was run?
Answer: > 8.00

Question: With `CC(Oc1cc(-n2cnc3cc(CN4CCN(C(=O)c5ccccc5)CC4)ncc32)sc1C(N)=O)c1ccccc1F` (stereo not shown) [Example 160, 5-{6-[(4-benzoylpiperazin-1-yl)methyl]3H-imidazo[4,5-c]pyridin-3-yl}-3-[-1-(2-fluorophenyl)ethoxy]thiophene-2-carboxamide] as the compound, how does the pIC50 read?
Answer: 5.00 to 6.00

Question: `CCN(CC)Cc1cc2c(cn1)ncn2-c1cc(OCc2ccccc2C(F)(F)F)c(C(N)=O)s1` [Example 6, 5-{6-[(Diethylamino)methyl]-1H-imidazo[4,5-c]pyridin-1-yl}-3-{[2-(trifluoromethyl)benzyl]oxy}thiophene-2-carboxamide] was tested. Which pIC50 did it give?
Answer: 6.00 to 7.00

Question: `C[C@@H](Oc1cc(-n2cnc3cnc(CN4CCC(O)CC4)cc32)sc1C(N)=O)c1ccccc1C(F)(F)F` [Example 64, 5-{6-[(4-hydroxypiperidin-1-yl)methyl]-1H-imidazo[4,5-c]pyridin-1-yl}-3-{(1R)-1-[2-(trifluoromethyl)phenyl]ethoxy}thiophene-2-carboxamide] was tested. Which pIC50 did it give?
Answer: > 8.00

Question: `Cc1ccccc1C(C)Oc1cc(-n2cnc3cnc(CN4CCN(C)CC4)cc32)sc1C(N)=O` (stereo not shown) [Example 148, 3-[1-(2-methylphenyl)ethoxy]-5-{6-[(4-methylpiperazin-1-yl)methyl]-1H-imidazo[4,5-c]pyridin-1-yl}thiophene-2-carboxamide] was tested. Which pIC50 did it give?
Answer: > 8.00

Question: `C[C@@H](Oc1cc(-n2cnc3cnc(CN4CC(O)C4)cc32)sc1C(N)=O)c1ccccc1C(F)(F)F` [Example 96, 5-{6-[(3-hydroxyazetidin-1-yl)methyl]-1H-imidazo[4,5-c]pyridin-1-yl}-3-{(1R)-1-[2-(trifluoromethyl)phenyl]ethoxy}thiophene-2-carboxamide] was tested. Which pIC50 did it give?
Answer: > 8.00

Question: With `C[C@@H](Oc1cc(-n2cnc3cnc(CNCCN4CCN(C)CC4)cc32)sc1C(N)=O)c1ccccc1C(F)(F)F` [Example 88, 5-[6-({[2-(4-methylpiperazin-1-yl)ethyl]amino}methyl)-1H-imidazo[4,5-c]pyridin-1-yl]-3-{(1R)-1-[2-(trifluoromethyl)phenyl]ethoxy}thiophene-2-carboxamide] as the compound, how does the pIC50 read?
Answer: 7.00 to 8.00

Question: `C[C@@H](Oc1cc(-n2cnc3cnc(CN4CCC(N5CCN(C)CC5)CC4)cc32)sc1C(N)=O)c1ccccc1C(F)(F)F` [Example 89, 5-(6-{[4-(4-methylpiperazin-1-yl)piperidin-1-yl]methyl}-1H-imidazo[4,5-c]pyridin-1-yl)-3-{(1R)-1-[2-(trifluoromethyl)phenyl]ethoxy}thiophene-2-carboxamide] was tested. Which pIC50 did it give?
Answer: 7.00 to 8.00
